Values of other authors, collected in patent US20170367972A1, “Formulations and Methods of Treatment for Treating Nail Fungal Infections” (priority 2016, published 2017).

Experiments:
[1] = tested on: dermatophytes
[2] = tested on: Candida albicans
[3] = tested on: dermatophytes; remark: listed apart in the source
[4] = tested on: Candida spp.
[5] = tested on: nondermophytic molds

CN(C/C=C/C#CC(C)(C)C)Cc1cccc2ccccc12 [Terbinafine, terbinafine]
activity against dermatophytes [1]: fungicidal activity | activity against Candida albicans [2]: only fungistatic activity

COC1=CC(=O)C[C@@H](C)[C@]12Oc1c(Cl)c(OC)cc(OC)c1C2=O [griseofulvin]
effectiveness in dermatophytic infections [3]: effective only for dermatophytic infections | activity against dermatophytes [1]: active in vitro against most dermatophytes | activity against Candida spp. [4]: no activity | activity against nondermophytic molds [5]: no activity
